Results as given in PubChem BioAssay (NCI).
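Dose response: 5 concentrations. Exposure: 48 h. Format: 96-well plates. Endpoint: linear interpolation; highest concentration if not reached. The concentration for full growth arrest is given as TGI.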

Assays:
Assay in all cases: DTP human tumour cell line panel, 48 h
[1] = tested on: SNB-75 CNS
[2] = tested on: SNB-19 CNS
[3] = tested on: TK-10 renal
[4] = tested on: NCI-H460 lung
[5] = tested on: A498 renal
[6] = tested on: NCI-H522 lung
[7] = tested on: K-562 leukemia
[8] = tested on: SF-539 CNS
[9] = tested on: SK-OV-3 ovarian
[10] = tested on: HL-60(TB) leukemia
[11] = tested on: SW-620 colon
[12] = tested on: RXF 393 renal
[13] = tested on: XF 498 CNS
[14] = tested on: CCRF-CEM leukemia
[15] = tested on: SK-MEL-5 melanoma
[16] = tested on: U251 CNS
[17] = tested on: SN12C renal
[18] = tested on: SF-295 CNS
[19] = tested on: EKVX NSCLC
[20] = tested on: HT29 colon
[21] = tested on: A549 NSCLC
[22] = tested on: DMS 114 small cell lung
[23] = tested on: HCT-15 colon
[24] = tested on: M14 melanoma
[25] = tested on: KM12 colon
[26] = tested on: LXFL 529 NSCLC
[27] = tested on: NCI-H23 lung
[28] = tested on: SNB-78 CNS
[29] = tested on: COLO 205 colon
[30] = tested on: SK-MEL-28 melanoma
[31] = tested on: CAKI-1 renal
[32] = tested on: SF-268 CNS
[33] = tested on: SR leukemia
[34] = tested on: UACC-257 melanoma
[35] = tested on: ACHN renal
[36] = tested on: HOP-62 NSCLC
[37] = tested on: HOP-92 NSCLC
[38] = tested on: UACC-62 melanoma
[39] = tested on: OVCAR-8 ovarian
[40] = tested on: HCT-116 colon
[41] = tested on: HCC-2998 colon
[42] = tested on: RPMI-8226 leukemia
[43] = tested on: NCI-H226 lung
[44] = tested on: IGROV1 ovarian
[45] = tested on: OVCAR-4 ovarian
[46] = tested on: OVCAR-5 ovarian
[47] = tested on: MOLT-4 leukemia
[48] = tested on: KM20L2 colon
[49] = tested on: LOX IMVI melanoma
[50] = tested on: DMS 273 small cell lung
[51] = tested on: UO-31 renal
[52] = tested on: SK-MEL-2 melanoma
[53] = tested on: DLD-1 colon
[54] = tested on: MALME-3M melanoma
[55] = tested on: 786-0 renal
[56] = tested on: M19-MEL melanoma
[57] = tested on: OVCAR-3 ovarian

O=C(Nc1ccc(F)cc1)C(=O)C(C(=O)c1ccccc1F)C1OC(=O)c2ccccc21 (configuration not stated)
TGI [1]: > 100 µM
TGI [2]: > 100 µM
TGI [3]: > 100 µM
TGI [4]: > 100 µM
TGI [5]: > 100 µM
TGI [6]: 71.8 µM
TGI [7]: > 100 µM
TGI [8]: 89.9 µM
TGI [9]: > 100 µM
TGI [10]: > 100 µM
TGI [11]: > 100 µM
TGI [12]: > 100 µM
TGI [13]: > 100 µM
TGI [14]: 90.8 µM
TGI [15]: > 100 µM
TGI [16]: 66.1 µM
TGI [17]: > 100 µM
TGI [18]: > 100 µM
TGI [19]: > 100 µM
TGI [20]: > 100 µM
TGI [21]: > 100 µM
TGI [22]: > 100 µM
TGI [23]: > 100 µM
TGI [24]: > 100 µM
TGI [25]: > 100 µM
TGI [26]: > 100 µM
TGI [27]: > 100 µM
TGI [28]: > 100 µM
TGI [29]: > 100 µM
TGI [30]: > 100 µM
TGI [31]: > 100 µM
TGI [32]: > 100 µM
TGI [33]: 59.6 µM
TGI [34]: > 100 µM
TGI [35]: > 100 µM
TGI [36]: > 100 µM
TGI [37]: > 100 µM
TGI [38]: > 100 µM
TGI [39]: > 100 µM
TGI [40]: > 100 µM
TGI [41]: > 100 µM
TGI [42]: > 100 µM
TGI [43]: 63.5 µM
TGI [44]: > 100 µM
TGI [45]: > 100 µM
TGI [46]: > 100 µM
TGI [47]: > 100 µM
TGI [48]: > 100 µM
TGI [49]: > 100 µM
TGI [50]: > 100 µM
TGI [51]: > 100 µM
TGI [52]: > 100 µM
TGI [53]: > 100 µM

COc1ccc(C(=O)c2c(C(C(=O)c3ccc(OC)cc3)C(=O)c3ccc(OC)cc3)n(C(=O)c3ccc(OC)cc3)c3ccccc23)cc1
TGI [1]: > 100 µM
TGI [2]: > 100 µM
TGI [3]: > 100 µM
TGI [4]: > 100 µM
TGI [5]: > 100 µM
TGI [6]: > 100 µM
TGI [7]: > 100 µM
TGI [8]: > 100 µM
TGI [9]: > 100 µM
TGI [10]: > 100 µM
TGI [11]: > 100 µM
TGI [12]: > 100 µM
TGI [13]: > 100 µM
TGI [14]: > 100 µM
TGI [15]: > 100 µM
TGI [16]: > 100 µM
TGI [17]: > 100 µM
TGI [18]: > 100 µM
TGI [19]: > 100 µM
TGI [20]: > 100 µM
TGI [54]: > 100 µM
TGI [21]: > 100 µM
TGI [22]: > 100 µM
TGI [23]: > 100 µM
TGI [24]: > 100 µM
TGI [25]: > 100 µM
TGI [26]: > 100 µM
TGI [27]: > 100 µM
TGI [28]: > 100 µM
TGI [29]: > 100 µM
TGI [30]: > 100 µM
TGI [31]: > 100 µM
TGI [55]: > 100 µM
TGI [32]: > 100 µM
TGI [56]: > 100 µM
TGI [33]: > 100 µM
TGI [35]: > 100 µM
TGI [36]: > 100 µM
TGI [37]: > 100 µM
TGI [38]: > 100 µM
TGI [39]: > 100 µM
TGI [40]: > 100 µM
TGI [57]: > 100 µM
TGI [41]: > 100 µM
TGI [42]: > 100 µM
TGI [43]: > 100 µM
TGI [44]: > 100 µM
TGI [45]: > 100 µM
TGI [46]: > 100 µM
TGI [47]: > 100 µM
TGI [48]: > 100 µM
TGI [49]: > 100 µM
TGI [50]: > 100 µM
TGI [51]: > 100 µM
TGI [52]: > 100 µM
TGI [53]: > 100 µM

N#CCCN(c1ccc(/C=N/c2nc(-c3ccccc3)cs2)cc1)S(=O)(=O)c1ccccc1
TGI [1]: 93.5 µM
TGI [2]: > 100 µM
TGI [3]: > 100 µM
TGI [5]: > 100 µM
TGI [6]: > 100 µM
TGI [7]: > 100 µM
TGI [8]: > 100 µM
TGI [9]: > 100 µM
TGI [10]: > 100 µM
TGI [11]: > 100 µM
TGI [13]: > 100 µM
TGI [14]: > 100 µM
TGI [15]: > 100 µM
TGI [16]: > 100 µM
TGI [17]: > 100 µM
TGI [18]: > 100 µM
TGI [19]: > 100 µM
TGI [20]: > 100 µM
TGI [54]: > 100 µM
TGI [21]: > 100 µM
TGI [22]: > 100 µM
TGI [23]: > 100 µM
TGI [24]: > 100 µM
TGI [25]: > 100 µM
TGI [26]: > 100 µM
TGI [27]: > 100 µM
TGI [28]: > 100 µM
TGI [29]: > 100 µM
TGI [30]: > 100 µM
TGI [31]: > 100 µM
TGI [55]: > 100 µM
TGI [32]: > 100 µM
TGI [56]: > 100 µM
TGI [34]: > 100 µM
TGI [36]: > 100 µM
TGI [38]: > 100 µM
TGI [39]: > 100 µM
TGI [40]: > 100 µM
TGI [57]: > 100 µM
TGI [41]: > 100 µM
TGI [42]: > 100 µM
TGI [44]: > 100 µM
TGI [45]: > 100 µM
TGI [46]: > 100 µM
TGI [47]: > 100 µM
TGI [48]: > 100 µM
TGI [49]: > 100 µM
TGI [50]: > 100 µM
TGI [51]: > 100 µM
TGI [52]: > 100 µM
TGI [53]: > 100 µM

O=C1N[C@H](Cc2cnc[nH]2)C(=O)N2CCC[C@@H]12
TGI [1]: > 100 µM
TGI [2]: > 100 µM
TGI [3]: > 100 µM
TGI [4]: > 100 µM
TGI [6]: > 100 µM
TGI [7]: > 100 µM
TGI [9]: > 100 µM
TGI [10]: > 100 µM
TGI [11]: > 100 µM
TGI [12]: > 100 µM
TGI [13]: > 100 µM
TGI [14]: > 100 µM
TGI [15]: > 100 µM
TGI [17]: > 100 µM
TGI [18]: > 100 µM
TGI [19]: > 100 µM
TGI [54]: > 100 µM
TGI [21]: > 100 µM
TGI [22]: > 100 µM
TGI [23]: > 100 µM
TGI [24]: > 100 µM
TGI [25]: > 100 µM
TGI [26]: > 100 µM
TGI [27]: > 100 µM
TGI [28]: > 100 µM
TGI [29]: > 100 µM
TGI [30]: > 100 µM
TGI [31]: > 100 µM
TGI [55]: > 100 µM
TGI [32]: > 100 µM
TGI [56]: > 100 µM
TGI [34]: > 100 µM
TGI [35]: > 100 µM
TGI [36]: > 100 µM
TGI [37]: > 100 µM
TGI [38]: > 100 µM
TGI [39]: > 100 µM
TGI [57]: > 100 µM
TGI [41]: > 100 µM
TGI [42]: > 100 µM
TGI [44]: > 100 µM
TGI [45]: > 100 µM
TGI [46]: > 100 µM
TGI [47]: > 100 µM
TGI [48]: > 100 µM
TGI [49]: > 100 µM
TGI [50]: > 100 µM
TGI [51]: > 100 µM
TGI [52]: > 100 µM
TGI [53]: > 100 µM

CC(=O)NNc1nc(C)c(C(=O)NNC(=O)C(=O)Nc2c(C)cccc2C(C)C)s1
TGI [2]: > 100 µM
TGI [3]: > 100 µM
TGI [4]: > 100 µM
TGI [5]: > 100 µM
TGI [6]: > 100 µM
TGI [7]: > 100 µM
TGI [8]: > 100 µM
TGI [9]: > 100 µM
TGI [10]: > 100 µM
TGI [11]: > 100 µM
TGI [13]: > 100 µM
TGI [14]: > 100 µM
TGI [15]: > 100 µM
TGI [17]: > 100 µM
TGI [18]: > 100 µM
TGI [19]: > 100 µM
TGI [20]: > 100 µM
TGI [54]: > 100 µM
TGI [21]: > 100 µM
TGI [22]: > 100 µM
TGI [23]: > 100 µM
TGI [24]: > 100 µM
TGI [25]: > 100 µM
TGI [26]: > 100 µM
TGI [27]: > 100 µM
TGI [28]: > 100 µM
TGI [29]: > 100 µM
TGI [30]: > 100 µM
TGI [55]: > 100 µM
TGI [32]: > 100 µM
TGI [56]: > 100 µM
TGI [33]: > 100 µM
TGI [34]: > 100 µM
TGI [35]: > 100 µM
TGI [36]: > 100 µM
TGI [37]: > 100 µM
TGI [38]: > 100 µM
TGI [39]: > 100 µM
TGI [40]: > 100 µM
TGI [57]: > 100 µM
TGI [41]: > 100 µM
TGI [42]: > 100 µM
TGI [43]: > 100 µM
TGI [44]: > 100 µM
TGI [45]: > 100 µM
TGI [46]: > 100 µM
TGI [47]: > 100 µM
TGI [48]: > 100 µM
TGI [49]: > 100 µM
TGI [50]: > 100 µM
TGI [51]: > 100 µM
TGI [52]: > 100 µM
